Results as given in patent publication US12050218B2, “Mitochondrial protease OMA1 as a marker for breast cancer” (NUtech Ventures, priority 2017, dated 2024).

What was measured:
[1] = test system: oma1−/− mouse embryonic fibroblasts; experiment: Cell viability / growth rate of MEF cells under glutamate pathway inhibition; format: cell-based; details: 10 μM BPTES, low glucose or 10 mM galactose medium; oma1−/− vs wild type MEFs (FIG. 1B)
Method: FIG. 1A depicts extracellular acidification rates (ECAR) in wild type and oma1^−/− mouse embryonic fibroblasts under basal, FCCP-stimulated, and glycolysis-ablating (2-DG) conditions. Cells were cultured in the media containing 10 mM glucose. Data are shown as mean values of 3 independent experiments±S.E.M.; **p<0.01, by unpaired t-test. FIG. 1B depicts growth rate of wild type (WT) and oma1^−/− MEF cells under conditions of glutamate pathway inhibition by BPTES. Cells were cultured in the 10 mM galactose-containing medium with (left panel) or without (right panel) 10 μM BPTES for the indicated periods of time and the number of viable cells at each time point has been assessed. […] FIG. 1D depicts the prevalence of cells with protrusions was analyzed in WT and oma1^−/− MEF cells two days after re-seeding on 6-well plates after one week of growth at 100% confluence. […] Of the cells in the field of view, the number of cells with long lamellopodia and cells with normal lamellopodia were counted. […]
(§1) The wild type and oma1^−/− mouse embryonic fibroblasts (24, obtained from Dr. Carlos Lopez-Otin, University of Oviedo) were seeded into 12-well plates at the density of 4×10^4 cells per well. […] Every 24 hours cells, from one well per condition were trypsinized with 0.05% Trypsin (Life Technologies), washed with Ca-, Mg-PBS, resuspended and counted in Countess Automated Cell Counter (Life Technologies). […]

[2] = test system: OMA1-depleted 21MT-1 cells; experiment: Growth rate of control and OMA1-depleted 21MT-1 cells under glutamate pathway inhibition; format: cell-based, human; details: 10 μM BPTES, 10 mM galactose medium; OMA1 KD vs control 21MT-1 cells (FIG. 3C)
Method: FIG. 3A depicts a representative oxygen consumption rate (OCR) graph in control and OMA1-depleted 21MT-1 cells under basal, oligomycin A (OLA), FCCP, and Antimycin A/Rotenone (AA+Rot.) stimulated conditions. Cells were cultured in the medium containing 10 mM galactose. FIG. 3B depicts respiratory control ratios in control and OMA1 KD 21MT-1 cells cultured in 10 mM galactose medium. Data represent the mean±S.E.M. (n=3 biological replicates); *p<0.05, by t-test. FIG. 3C depicts the growth rate of control and OMA1-depleted 21MT-1 cells under conditions of glutamate pathway inhibition. Cells were cultured in the 10 mM galactose-containing medium in the presence of 10 μM BPTES for the indicated periods of time and the number of viable cells at each time point has been assessed. Data represent the mean±S.D. (n=3 biological replicates); *p<0.05, ***p<0.001, by unpaired t-test.
as §1

O=C(Cc1ccccc1)Nc1nnc(CCSCCc2nnc(NC(=O)Cc3ccccc3)s2)s1 [BPTES]
proliferation of oma1−/− MEFs compared with wild type cells [1]: proliferated at much slower rates than wild type cells | sensitivity of OMA1-depleted 21MT-1 cells to glutaminase inhibitor [2]: marked increase in sensitivity
